Laboratory results published in paper PMC6220303 (EMBO Molecular Medicine, 2018).
Several values for one entry are separate records, joined by “and”; a condition that tells them apart may be missing. Identical values can stand only once. Like-named read-outs stand apart in the source and are kept apart here.

What was measured:
clinical = type: in vivo, human; details: for AUC(0-t): AUC 0–24h
Protocol: The lower limit of quantification (LLOQ) was 1 ng/ml in plasma and 2 ng/ml in urine and CSF, except for the 3‐month study where the method for CSF was more sensitive (LLOQ 0.1 ng/ml). Plasma PK parameters were calculated using actual recorded sampling times and non‐compartmental methods with Phoenix WinNonlin version 6.4 (Certara, Inc., Princeton, NJ, USA).
For further details, see the Appendix Table S10 in Appendix and the accompanying clinical protocols synopsis (Appendix Table S11).

CSF Aβ40 = experiment: Human CSF Aβ40, Phase IIa study of 3-month duration; type: in vivo; details: for reduction in CSF Aβ40 concentrations: 3 months, mean ± SEM
From the text: All study participants underwent CSF sampling at baseline and at the end of treatment; in addition, we collected CSF at a number of intermediate time points (n = 2–7/time point).
CSF Aβ38, Aβ40, Aβ42, sAPPα, and sAPPβ were quantified in human CSF with 0.2% (v/v) Tween®‐20 using validated sandwich‐based multiplexed electrochemiluminescence methods (MesoScale Discovery, […], MD, USA). […]
Secondary • To assess the change from baseline of CSF Aβ concentrations (Aβ1-
Objectives 38; Aβ1-40; Aβ1-42) in healthy elderly subjects over 13 weeks

H Nav 1.2 = H Nav 1.2 (Homo sapiens, UniProt Q99250); experiment: Functional assay; type: biochemical; details: read-out: Inhibition at 10 µM
Protocol: (§1) Cellular Aβ release assays were done in CHO cells stably transfected with human wild‐type and human APP were done as described (Neumann et al, 2015). Determinations of logD, pKa, and binding to brain homogenates were done internally at Novartis, Basel. Plasma protein binding was determined by equilibrium dialysis using diluted plasma from the corresponding species. MDR‐1‐MDCK cells were obtained from Prof. A. Berns, Netherlands Cancer Institute, Amsterdam NL, and bi‐directional transport measurements were done as described (Rueeger et al, 2011). Receptor binding assays were done against an internal receptor panel and externally at Ricerca Biosciences, Peitou, Taiwan. In vitro binding and cellular patch clamp assays for hERG were done at Preclinical Safety, Novartis, Basel.

[1] = target: Monoamine transporter VMAT2 (Rattus norvegicus, UniProt Q01827); experiment: Functional assay; type: biochemical; details: read-out: Inhibition at 10 µM
Protocol: as §1

APP23 mice = details: APP23, mouse, in vivo, 3 months
[2] = single dose 1250 mg, adults (2), individual data points

Chain of H Nav 1.2 (Q99250 whole entry): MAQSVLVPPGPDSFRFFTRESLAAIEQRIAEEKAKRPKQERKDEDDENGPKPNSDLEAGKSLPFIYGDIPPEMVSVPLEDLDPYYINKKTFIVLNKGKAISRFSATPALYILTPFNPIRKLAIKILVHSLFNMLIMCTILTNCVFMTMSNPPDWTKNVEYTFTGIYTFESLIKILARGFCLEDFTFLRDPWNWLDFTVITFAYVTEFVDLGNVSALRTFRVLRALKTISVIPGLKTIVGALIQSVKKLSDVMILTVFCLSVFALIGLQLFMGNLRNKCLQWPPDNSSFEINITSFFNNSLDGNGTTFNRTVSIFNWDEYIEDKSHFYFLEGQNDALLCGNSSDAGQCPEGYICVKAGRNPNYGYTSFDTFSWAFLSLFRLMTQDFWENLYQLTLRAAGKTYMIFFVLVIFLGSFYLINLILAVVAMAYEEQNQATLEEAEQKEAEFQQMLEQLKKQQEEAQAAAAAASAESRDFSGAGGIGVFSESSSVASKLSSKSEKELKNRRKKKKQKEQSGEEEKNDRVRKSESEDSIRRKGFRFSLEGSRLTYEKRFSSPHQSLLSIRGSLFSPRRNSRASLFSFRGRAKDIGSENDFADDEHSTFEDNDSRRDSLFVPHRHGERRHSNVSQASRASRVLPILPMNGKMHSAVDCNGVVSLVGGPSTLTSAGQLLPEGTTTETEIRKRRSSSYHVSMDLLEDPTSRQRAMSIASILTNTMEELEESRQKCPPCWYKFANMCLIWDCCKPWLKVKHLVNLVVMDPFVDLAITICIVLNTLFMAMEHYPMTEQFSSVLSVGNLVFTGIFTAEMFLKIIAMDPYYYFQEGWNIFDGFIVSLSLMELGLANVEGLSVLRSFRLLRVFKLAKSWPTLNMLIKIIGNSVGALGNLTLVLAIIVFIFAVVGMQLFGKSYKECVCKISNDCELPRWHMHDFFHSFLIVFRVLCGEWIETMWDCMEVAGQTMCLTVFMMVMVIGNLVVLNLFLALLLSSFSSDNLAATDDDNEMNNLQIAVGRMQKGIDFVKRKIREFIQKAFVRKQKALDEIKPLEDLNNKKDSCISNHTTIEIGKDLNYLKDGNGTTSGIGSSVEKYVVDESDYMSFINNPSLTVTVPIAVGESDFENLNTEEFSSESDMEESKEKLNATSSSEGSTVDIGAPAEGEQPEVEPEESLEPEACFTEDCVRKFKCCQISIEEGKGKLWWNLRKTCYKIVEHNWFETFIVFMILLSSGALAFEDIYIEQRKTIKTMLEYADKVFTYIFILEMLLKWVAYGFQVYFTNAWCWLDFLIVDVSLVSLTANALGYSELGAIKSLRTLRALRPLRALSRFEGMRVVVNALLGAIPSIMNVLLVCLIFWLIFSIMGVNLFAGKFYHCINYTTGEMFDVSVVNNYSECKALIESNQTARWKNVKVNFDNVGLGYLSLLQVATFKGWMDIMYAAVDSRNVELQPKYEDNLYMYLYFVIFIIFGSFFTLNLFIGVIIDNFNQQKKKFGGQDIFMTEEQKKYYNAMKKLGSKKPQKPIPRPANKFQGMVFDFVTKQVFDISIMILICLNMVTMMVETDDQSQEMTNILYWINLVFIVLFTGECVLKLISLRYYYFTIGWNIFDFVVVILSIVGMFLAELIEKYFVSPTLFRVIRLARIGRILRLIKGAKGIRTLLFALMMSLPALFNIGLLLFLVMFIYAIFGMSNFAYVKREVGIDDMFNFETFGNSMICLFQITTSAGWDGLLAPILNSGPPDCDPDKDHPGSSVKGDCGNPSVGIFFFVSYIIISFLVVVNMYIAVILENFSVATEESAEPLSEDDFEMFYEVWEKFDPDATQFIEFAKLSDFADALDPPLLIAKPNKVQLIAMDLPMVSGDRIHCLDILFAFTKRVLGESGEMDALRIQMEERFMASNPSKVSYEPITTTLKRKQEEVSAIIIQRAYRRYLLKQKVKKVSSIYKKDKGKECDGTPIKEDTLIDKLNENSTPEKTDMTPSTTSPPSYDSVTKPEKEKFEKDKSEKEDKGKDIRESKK
Chain of Monoamine transporter VMAT2 (Q01827 whole entry): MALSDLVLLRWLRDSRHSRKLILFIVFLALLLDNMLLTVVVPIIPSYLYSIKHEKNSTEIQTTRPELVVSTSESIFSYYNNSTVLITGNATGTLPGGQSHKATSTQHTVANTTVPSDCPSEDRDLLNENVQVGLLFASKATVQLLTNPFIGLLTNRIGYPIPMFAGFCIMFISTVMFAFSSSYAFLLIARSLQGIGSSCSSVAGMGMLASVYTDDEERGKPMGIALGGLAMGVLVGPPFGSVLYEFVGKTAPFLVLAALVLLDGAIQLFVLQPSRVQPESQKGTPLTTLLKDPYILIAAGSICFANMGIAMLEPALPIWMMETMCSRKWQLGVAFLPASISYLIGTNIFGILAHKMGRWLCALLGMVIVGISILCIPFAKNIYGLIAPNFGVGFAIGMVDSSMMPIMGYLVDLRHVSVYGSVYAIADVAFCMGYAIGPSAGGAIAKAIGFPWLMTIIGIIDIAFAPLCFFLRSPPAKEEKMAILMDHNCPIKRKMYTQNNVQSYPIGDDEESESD

For C[C@@]1(c2nc(NC(=O)c3ncc(C(F)(F)F)cc3Cl)ccc2F)CO[C@@](C)(C(F)(F)F)C(N)=N1 [CNP520], the Cmax (clinical; human, plasma, oral, 85 mg, 3 months, Day 91, ≥ 60 years, mean (CV%)) was 602 ng/mL, the AUC(0-t) (clinical; human, plasma, oral, 85 mg, 85 mg, 3 months, Day 91, mean (CV%)) was 11200 ng·h/mL and the Tmax (clinical; human, plasma, oral, 90 mg, 14 days, Day 14, median (min–max)) was 3 h. The Cmax (clinical; human, plasma, oral, 90 mg, 14 days, Day 14, ≥ 60 years, mean (CV%)) was 581 ng/mL, the AUC(0-t) (clinical; human, plasma, oral, 90 mg, 90 mg, 14 days, Day 14, mean (CV%)) was 9380 ng·h/mL and the AUC(0-inf) (clinical; human, plasma, oral, 90 mg, single dose 90 mg, adults (6), mean (%CV)) was 7190 ng·h/mL. For the same compound, the Cmax (clinical; human, plasma, oral, 90 mg, single dose 90 mg, adults (6), mean (%CV), read-out: Cmax) was 138 ng/mL, the half-life (clinical; human, plasma, oral, 90 mg, single dose 90 mg, adults (6), mean (%CV), read-out: T1/2 (converted)) was 66.2 h and the Tmax (clinical; human, plasma, oral, 90 mg, single dose 90 mg, adults (6), median (min–max), read-out: Tmax) was 3.5 h. The Cmax (clinical; human, plasma, oral, 90 mg, single dose 90 mg, adults ≥ 60 years (6), mean (%CV), read-out: Cmax) was 172 ng/mL, the Tmax (clinical; human, plasma, oral, 90 mg, single dose 90 mg, adults ≥ 60 years (6), median (min–max), read-out: Tmax) was 2.02 h and the Tmax (clinical; human, plasma, oral, 300 mg, 14 days, Day 14, median (min–max)) was 2.51 h. It also gave a Cmax (clinical; human, plasma, oral, 300 mg, 14 days, Day 14, ≥ 60 years, mean (CV% 25.1)) of 1710 ng/mL, an AUC(0-t) (clinical; human, plasma, oral, 300 mg, 300 mg, 14 days, Day 14, mean (CV%)) of 28300 ng·h/mL and an AUC(0-inf) (clinical; human, plasma, oral, 300 mg, single dose 300 mg, adults (6), mean (%CV)) of 23500 ng·h/mL. The Cmax (clinical; human, plasma, oral, 300 mg, single dose 300 mg, adults (6), mean (%CV), read-out: Cmax) was 498 ng/mL, the half-life (clinical; human, plasma, oral, 300 mg, single dose 300 mg, adults (6), mean (%CV), read-out: T1/2 (converted)) was 57.9 h and the Tmax (clinical; human, plasma, oral, 300 mg, single dose 300 mg, adults (6), median (min–max), read-out: Tmax) was 6 h. It also gave a Cmax (clinical; human, plasma, oral, 300 mg, single dose 300 mg, adults ≥ 60 years (18), mean (%CV), read-out: Cmax) of 440 ng/mL, a Tmax (clinical; human, plasma, oral, 300 mg, single dose 300 mg, adults ≥ 60 years (18), median (min–max), read-out: Tmax) of 5.04 h and an AUC(0-inf) (clinical; human, plasma, oral, 750 mg, single dose 750 mg, adults (6), mean (%CV)) of 90100 ng·h/mL. It also gave a Cmax (clinical; human, plasma, oral, 750 mg, single dose 750 mg, adults (6), mean (%CV), read-out: Cmax) of 1150 ng/mL, a half-life (clinical; human, plasma, oral, 750 mg, single dose 750 mg, adults (6), mean (%CV), read-out: T1/2 (converted)) of 83.8 h and a Tmax (clinical; human, plasma, oral, 750 mg, single dose 750 mg, adults (6), median (min–max), read-out: Tmax) of 2.5 h. For the same compound, the Cmax (clinical; human, plasma, oral, 750 mg, single dose 750 mg, adults ≥ 60 years (20), mean (%CV), read-out: Cmax) was 1120 ng/mL, the Tmax (clinical; human, plasma, oral, 750 mg, single dose 750 mg, adults ≥ 60 years (20), median (min–max), read-out: Tmax) was 3 h and the AUC(0-inf) (clinical; human, plasma, oral, 1250 mg, single dose 1250 mg, adults (2), individual data points) was 168000 ng·h/mL. For the same compound, the Cmax (clinical; human, plasma, oral, 1250 mg, single dose 1250 mg, adults (2), individual data points, read-out: Cmax) was 2850 ng/mL, the half-life (clinical; human, plasma, oral, 1250 mg, single dose 1250 mg, adults (2), individual data points, read-out: T1/2 (converted)) was 76.4 h and the Tmax (clinical; human, plasma, oral, 1250 mg, single dose 1250 mg, adults (2), individual data points, read-out: Tmax) was 4 h. It also gave a Tmax (clinical; human, plasma, oral, after dose, human pharmacokinetic studies, read-out: T max) of 1 to 8 h, a half-life (clinical; human, plasma, oral, healthy adult participants, single dose, read-out: mean terminal T 1/2) of 61.3 to 83.8 h and an AUCinf (clinical; [2]) of 184000 ng·h/mL. For the same compound, the Cmax (clinical; [2]) was 2890 ng/mL, the T1/2 (clinical; [2]) was 86.1 h and the Tmax (clinical; [2]) was 8.00 h. The “unbound concentration of CNP520 in plasma” value (clinical; typically, at pharmacologically active doses in animals and humans) was “below 0.1 μM”, the “reduction in CSF Aβ40 concentrations” value (CSF Aβ40; 2-mg daily dose) was 22.6 ± 2.1% and the “reduction in CSF Aβ40 concentrations” value (CSF Aβ40; 85-mg daily dose) was 90.7 ± 0.37%. The “ED50(free)” value (CSF Aβ40; corrected for plasma protein binding, human plasma) was 3.3 nM, the “ED50: total plasma CNP520 concentration at fifty percent reduction of CSF Aβ40” value (CSF Aβ40; human plasma, Phase IIa) was 37.5 ± 2.9 ng/ml and 73.5 ± 5.8 nM and the inhibition at 10 µM (H Nav 1.2) was 23.6%. The inhibition at 10 µM [1] was 80%, the “Hemorrhage (H & E staining) % affected” value (APP23 mice) was 7% and the “Hemorrhage (H & E staining) Grade 1, number of animals affected” value (APP23 mice) was 1. The “Hemorrhage (H & E staining) Grade 2, number of animals affected” value (APP23 mice) was 0, the “Hemosiderin (Perl’s staining) % affected” value (APP23 mice) was 47% and the “Hemosiderin (Perl’s staining) Grade 1, number of animals affected” value (APP23 mice) was 7. For the same compound, the “Hemosiderin (Perl’s staining) Grade 2, number of animals affected” value (APP23 mice) was 0.
